The text below walks through data of PMC8251916 (Chemistry (Weinheim an Der Bergstrasse, Germany), 2021).

Test [1] relates to F21T-K+ (human telomeric G-quadruplex, mixed parallel/hybrid). The settings on record: 200 nM DNA, previously reported data for 1, cited from earlier work.
In test [2] the test system is F21T-Na+ (human telomeric G-quadruplex, antiparallel). Conditions: 200 nM DNA, previously reported data for 1, ref S16, cited from earlier work.
In test [3] the test system is FmycT-K+ (c-Myc promoter G-quadruplex, parallel). Conditions: 200 nM DNA, previously reported data for 1, cited from earlier work.
For test [4], the system named is EBR1-K+ (DNA, G4) GGGCAGGGGGTGATGGGGAGGAGCCAGGG
Kind of test: CD titration. The settings on record: 20 °C, 5 µM DNA, up to 10 equivalents ligand.

For test [5], the system named is F21T (DNA, G4) GGGTTAGGGTTAGGGTTAGGG
In words: FRET melting. The settings on record: 10 mM Li cacodylate, 5 µM ligand, 200 nM DNA.

The test system of test [6] is FMycT (DNA, G4) TTGAGGGTGGGTAGGGTGGGTAA
In words: FRET melting. Conditions: 1 mM K+, 99 mM Li+; 10 mM Li cacodylate; 5 µM ligand, 200 nM DNA.

Test [7] concerns F10T (DNA, hairpin, hexaethylene glycol (HEG) linker between 10 and 11) TATAGCTATATATAGCTATA
In words: FRET melting. The settings on record: 10 mM K+, 90 mM Li+; 10 mM Li cacodylate; 5 µM ligand, 200 nM DNA.

The subject of test [8] is telo22-Na+ (DNA, G4) AGGGTTAGGGTTAGGGTTAGGG
In words: NMR titration. The settings on record: 70 mM NaCl; 25 mM sodium phosphate pH 7.0, 10% D2O, 298 K; 185 µM DNA, up to 2 equivalents.

Where two headings read alike, the source gives them in different places.

With `CN1CCN(CCCN2C(=O)c3ccc4c5c(ccc(c35)C2=O)C(=O)N(CCCN2CCN(C)CC2)C4=O)CC1` [Compound 1], the “ΔTm F21T-K+” value in test [1] (1 µM ligand, ref S16) was 10 ± 1 °C; in test [1] (5 μM ligand), 14±2 °C; in test [1] (10 µM ligand, ref S16), 20 ± 1 °C. For the same compound, the “ΔTm F21T-Na+” value was -2 ± 1 °C in test [2] (1 µM ligand) and 2 ± 1 °C in test [2] (10 µM ligand). Also, the “ΔTm FmycT-K+” value was 0 ± 1 °C in test [3] (1 µM ligand, ref S16); 7±2 °C in test [3] (5 μM ligand); 13 ± 1 °C in test [3] (10 µM ligand, ref S16).

The term ΔTm denotes the shift of the melting midpoint relative to a reference. Take `CN1CCN(CCCNC(=O)c2ccc(Oc3ccc(C(C)(C)c4ccc(Oc5ccc(C(=O)NCCCN6CCN(C)CC6)c(C(=O)NCCCN6CCN(C)CC6)c5)cc4)cc3)cc2C(=O)NCCCN2CCN(C)CC2)CC1` [Compound 11]: the binding result in test [4] and in test [8] was “yes” in each case. The ΔTm came out at 7±2 °C in test [5] (10 mM K+, 90 mM Li+); 1±1 °C in test [5] (100 mM Na+); 5±1 °C in test [6]; 0±1 °C in test [7].
